Reference: US20120076842A1, “COSMETIC USE OF TYR-ARG DIPEPTIDE TO COMBAT CUTANEOUS SAGGING” (SEDERMA, priority 2009, published 2012)

Key:
[1] = test system: elastin/tropoelastin, NHDF; assay: Synthesis of elastin/tropoelastin by normal human fibroblasts (immunolabeling, image analysis); format: cell-based; conditions: TGF-β1, vs control
Procedure: Principle: normal human fibroblastes (NHDF) were cultured to confluence. The cells were then exposed or not to preparations containing Tyr-Arg peptide. The cellular layers are then marked with an antibody recognising specifically elastine.

[2] = test system: LOXL-1 in reconstructed skin specimens (Full Thickness Skin PHENION); assay: LOXL-1 (lysyl oxydase like 1) synthesis in reconstructed skin specimens (immunolabeling); format: cell-based; conditions: TGF-β1 used as positive control
Procedure: LOXL synthesis was analyzed by preparations containing Tyr-Arg dipeptide in reconstructed skin specimens (Full Thickness Skin PHENION).
LOXL synthesis after application of the dipeptide was evaluated by an immunohistochemical analysis.
Preparations of Tyr-Arg dipeptide were applied to the surface of ? aged ? or not ? aged ? skins from the evening of D1 then every day. The skins were thereafter frozen for the immunohistochemical analysis.

[3] = test system: Fibrillin-1 by NHDF; assay: Synthesis of Fibrillin-1 by NHDF (immunolabeling method); format: cell-based, human; conditions: TGF-β1 10^−6%, vs control
Procedure: As indicated in the introduction, elastin formation is not sufficient. The presence of microfibril scaffolding is necessary. The induction of Fibrillin-1 synthesis was thus investigated.
NHDF were cultured to confluence. The cells were then exposed or not exposed to Tyr-Arg dipeptide at different concentrations for 18 days. The cell layers were then labeled with an antibody to specifically detect Fibrillin-1 by immunofluorescence.
Standardized photographs enabled imaging and quantification of Fibrillin-1 synthesis by image analysis (n=4).

[4] = test system: transglutaminase activity in NHDF; assay: Transglutaminase activity in NHDF (Dansyl Cadaverine substrate, fluorescence); format: cell-based, human; conditions: TGF-β1 10^−6%, vs control, n=6
Excerpt: NHDF were cultivated until confluence. The cells were exposed or not exposed to preparations containing or not Tyr-Arg dipeptide. The cell layers are then exposed to transglutaminase substrate (Dansyl Cadaverine, DC). The fluorescence obtained is proportional to transglutaminase activity. (n=6).

[5] = test system: Elastin/Tropoelastin by normal human fibroblasts; assay: Release of Elastin/Tropoelastin by normal human fibroblasts (ELISA sandwich method); format: cell-based; conditions: TGF-β1 10-6% (positive control); vs control (placebo); n = 5
Procedure: Normal human dermal fibroblasts (NHDF) were cultured to confluence. The cells were then exposed or not to preparations comprising the Tyr-Arg dipeptide at different concentrations. The culture supernatants were assayed to determine the quantity of Elastin/Tropoelastin using an ELISA sandwich method. TGF-β1 was used as the positive control.

[6] = test system: Fibulin-5 synthesis by NHDF; assay: Fibulin-5 synthesis by NHDF (Western Blot method); format: cell-based, human; conditions: 10^−6% TGF-β1
Procedure: NHDF were cultured to confluence. The cells were exposed or not exposed to preparations containing Tyr-Arg dipeptide. The cell layers were then lysed and analyzed using the Western Blot* method. Fibulin-5 synthesis was detected using a specific antibody. The resulting bands were quantified using appropriate image-analysis software. * Western Blot: the cell layers were blended in lysis buffer. The lysate was applied to a polyacrylamide gel for electrophoresis. After migration, the proteins were transferred to a nitrocellulose membrane and the proteins of interest detected using a specific antibody. Image analysis was used to quantify the two fibulin-5 bands obtained.

TGF-β1 [reference compound]
% change (elastin/tropoelastin, immunolabeling) [1]: +87%; p < 0.01 | Effect on synthesis of LOXL-1 (positive control) [2]: expected effect stimulating the synthesis of LOXL-1 | % change of Fibrillin-1 synthesis [3]: +760%; p < 0.01 | % change of the transglutaminase activity (AFU/10^6 cells) [4]: +26%; p < 0.01 | % change in the elastin/tropoelastin synthesis [5]: +1127%; p < 0.01 | % change/Control (fibulin-5 bands) [6]: +55% p < 0.01 | Mean intensity (UA) of the fibulin-5 bands ([6]; control 18.6 +/− 4.3): 28.8 +/− 8 UA
